Here are results for 24 compounds from patent US9945845B2, “Methods of screening using amphibians” (priority 2009, dated 2018).

The data set relates to Xenopus embryos. The following applies: for Type of edema Ventral: ‡ = edemas also detected in the gut; for Type of edema Periocular: * = causing bulging eyes, # = bilateral, causing narrow-set eyes. The method, then:
10-μl aliquots of the chemicals were transferred from the mother plates with a liquid handling robot (Aquarius, Tecan) into 96-well tissue culture plates to generate diluted stock plates (2 mM in DMSO; 50 μl final volume). […] Once embryos reached stage 31 (37 hpf), 10-μl aliquots of the diluted chemicals were added to the wells. […] Negative control wells contained embryos in screening medium and 0.1×MMR only. Embryos were treated with the chemicals in a humidified incubator at 23° C. over a timeframe of 4 days. Embryos were manually scored for the presence of edema or other morphological phenotypes using a teaching dissecting microscope (SV6; Carl Zeiss). Two investigators performed separately the scoring daily at stages 39 (56 hpf), 41 (76 hpf), 45 (98 hpf), and 47 (120 hpf). Dead embryos were removed and 100 μl of water was added daily to each well to compensate for fluid evaporation. […] For imaging at the end of the experiments. Xenopus tadpoles were anesthetized with 0.05% tricaine (Sigma #A5040) in 0.1×MMR. Images were captured using a stereomicroscope (SteREO Lumar V12; Carl Zeiss) equipped with a digital camera (AxioCam Color; Carl Zeiss).
Xenopus late tailbud embryos at stage 31 (37 hpf) were selected for compound treatment. […] Embryos were arrayed into 48-well dishes (five per well) and treated with test compounds at a concentration of 20 μM in the presence of 1% DMSO. […] All 48-well dishes also contained replicates of negative controls (1% DMSO). Embryos were monitored daily over a period of four days for edema formation. In addition, drug-induced lethality and other externally visible phenotypes were scored. On average, 320 compounds were screened per week.

[1] abbreviates: compounds causing lethality, 20 μM, 1% DMSO, treatment from stage 31, Nieuwkoop & Faber stage.
Where [2] appears, read: compounds causing cytotoxicity, 20 μM, 1% DMSO, treatment from stage 31, Nieuwkoop & Faber stage.
[3] abbreviates: compounds causing edema, 20 μM, 1% DMSO, treatment from stage 31, scored to stage 47.
[4] abbreviates: embryonic stage, — = no stage of lethality given.
[5] abbreviates: onset of edema, 20 μM, 1% DMSO, treatment from stage 31, Nieuwkoop & Faber stage.

Each structure is given as a SMILES string. Read-outs that look alike come from different tables or passages of the source.

With `c1ccc2c(c1)[I+]c1ccccc1-2` [Diphenyleneiodonium chloride, [1,1′-Biphenyl]-2,2′-diyiodonium chloride], the “Lethality (NF)” value (Xenopus laevis, in vivo) is given as 42 NF.

For the compound `CCCCCCCCCCCCCCCCCCOCC(COP(=O)([O-])OCC[N+](C)(C)C)OC` (centres unmarked) [ET-18-OCH3, 3,5,9-Trioxa-4-phosphaheptacosan-1-aminium], the “Lethality (NF)” value under setting [1] is given as 37/38.

In the case of `O=c1c2ccccc2[se]n1-c1ccccc1` [Ebselen, 2-Phenyl-1,2-benzisoselenazol-3(2H)-one], the “Lethality (NF)” value under setting [2] is given as 32 NF.

Take `COC(=O)c1c(C)[nH]c(C)c1C(=O)c1ccccc1Cc1ccccc1` [FPL 64176, 2,5-Dimethyl-4-[2-(phenylmethyl)benzoyl]-1H-pyrrole-3-carboxylic acid methyl ester]: under setting [1], the “Lethality (NF)” value amounted to 40 NF.

Take `CC(C)=CCCC(C)=CCCC(C)=CCSc1ccccc1C(=O)O` [Farnesylthiosalicylic acid]: the “Lethality (NF)” value under setting [2] came out at 32 NF.

`O=C1NCN(c2ccccc2)C12CCN(CCCC(c1ccc(F)cc1)c1ccc(F)cc1)CC2` [Fluspirilene]: the “Lethality (NF)” value under setting [2] stood at 32 NF.

For `C=C[C@@]1(C)CC(=O)[C@]2(O)[C@@]3(C)[C@@H](O)CCC(C)(C)[C@@H]3[C@H](O)[C@H](OC(C)=O)[C@@]2(C)O1` [Forskolin], the “Lethality (NF)” value under setting [3] is recorded as 41/42. Also, for the setting “embryonic stage”, the “Type of edema Pericordial” value is 39 embryonic stages according to Nieuwkoop and Faber (NF); the “Type of edema Proctodeal” value was 39 embryonic stages according to Nieuwkoop and Faber (NF); the “Type of edema Ventral” value is 39 embryonic stages according to Nieuwkoop and Faber (NF). The Lethality under setting [4] is reported as 41/42. The “Onset (NF)” value under setting [5] was 39/40.

Turning to `Cl.Cl.Fc1ccc(C(OCCN2CCN(CCCc3ccccc3)CC2)c2ccc(F)cc2)cc1` [GBR-12909 dihydrochloride, 1-[2-[bis(4-Fluorophenyl)methoxy]ethyl]-4-[3-phenylpropyl]piperazine dihydrochloride], for the setting “embryonic stage”, the “Type of edema Pronephric” value is 45 embryonic stages according to Nieuwkoop and Faber (NF); the “Type of edema Periocular” value was 45 embryonic stages according to Nieuwkoop and Faber (NF); the “Type of edema Ventral” value is 45 embryonic stages according to Nieuwkoop and Faber (NF).

Turning to `CC(C)(Sc1ccc(CCN(CCCCC2CCCCC2)C(=O)NC2CCCCC2)cc1)C(=O)O` [GW7647], the “Lethality (NF)” value under setting [2] was found to be 32 NF.

Turning to `O=C1Cc2c([nH]c3ccc(Br)cc23)-c2ccccc2N1` [Kenpaullone], under “embryonic stage”, the “Type of edema Periocular” value is 45 embryonic stages according to Nieuwkoop and Faber (NF); the “Type of edema Ventral” value was 45 embryonic stages according to Nieuwkoop and Faber (NF).

Consider `Cc1c(CC(C)(C)C(=O)O)n(Cc2ccc(Cl)cc2)c2ccc(F)cc12` [L-655,240, 3-[1-(4-Chlorobenzyl)-5-fluoro-3-methyl-indol-2-yl]-2,2-dirriethyl propanoic acid], for which the “Lethality (NF)” value under setting [2] turned out to be 32 NF.

For `COc1cc2nc(N3CCN(C(=O)OCc4ccccc4)[C@H](C(=O)NC(C)(C)C)C3)nc(N)c2cc1OC` [L-765,314, (2S)-4-(4-Amino-6,7-dimethoxy-2-quinazolinyl)-2-[[(1,1-Dimethylethyl)amino]carbonyl]-1-piperazinecarboxylic acid, phenylmethyl ester], under “embryonic stage”, the “Type of edema Periocular” value was 41/42 #; the “Type of edema Ventral” value is 45 embryonic stages according to Nieuwkoop and Faber (NF). Further, the “Onset (NF)” value under setting [5] is given as 41/42.

`CCCCCCCCCCCCCCCCOC[C@H](COCC(F)(F)F)OP(=O)(O)OC.[Li]` [MJ33, 1-Hexadecyl-3-(trifluoroethyl)-sn-glycero-2-phosphomethanol lithium]: the “Lethality (NF)” value under setting [2] is on record as 32 NF.

On to `Cc1ccc(Cl)c(Nc2ccccc2C(=O)O)c1Cl.[Na]` [Meclofenamic acid sodium, 2-([2,6-Dichloro-3-methylphenyl]amino)benzoic acid sodium], for which, under setting [3], the “Lethality (NF)” value is listed as 41/42. Moreover, where the note is “embryonic stage”, the “Type of edema Pericordial” value is 35/36. The Lethality under setting [4] is on record as 41/42. Besides, the “Onset (NF)” value under setting [5] is given as 35/36.

For the compound `Cl.O=C(CCCN1CCC2(CC1)C(=O)N(CCc1ccc(N=C=S)cc1)CN2c1ccccc1)c1ccc(F)cc1` [N-(p-Isothiocyanatophenethyl)spiperone hydrochloride], under “embryonic stage”, the “Type of edema Periocular” value is 45 embryonic stages according to Nieuwkoop and Faber (NF); the “Type of edema Ventral” value is 45 embryonic stages according to Nieuwkoop and Faber (NF). Moreover, the “Onset (NF)” value under setting [5] is 45 NF.

Take `CCCCCCCC/C=C\CCCCCCCC(=O)NCCc1ccc(O)c(O)c1` [N-Oleoyldopamine]: the “Lethality (NF)” value under setting [1] was 41 NF.

With `COC(=O)C1=C(C)NC(C)=C(C(=O)OC)C1c1ccccc1[N+](=O)[O-]` [Nifedipine], under “embryonic stage”, the “Type of edema Pericordial” value is reported as 41/42; the “Type of edema Periocular” value was 41/42; the “Type of edema Ventral” value is 45 embryonic stages according to Nieuwkoop and Faber (NF). Also, under setting [5], the “Onset (NF)” value is 41/42.

In the case of `COCCOC(=O)C1=C(C)NC(C)=C(C(=O)OC(C)C)C1c1cccc([N+](=O)[O-])c1` (centres unmarked) [Nimodipine, 1,4-Dihydro-2,6-dimethyl-4-(3-nitrophenyl)-3,5-pyridinecarboxylic acid 2-methoxyethyl 1-methylethyl ester], under “Xenopus laevis, in vivo”, the Lethality is 41/42 and the “Lethality (NF)” value is reported as 41/42. Moreover, the “Type of edema Pericordial” value (embryonic stage) is given as 41/42. Under setting [5], the “Onset (NF)” value is 41/42.

On to `CCOC(=O)C1=C(C)NC(C)=C(C(=O)OC)C1c1cccc([N+](=O)[O-])c1` (centres unmarked) [Nitrendipine, 1,4-Dihydro-2,6-dimethyl-4-(3-nitrophenyl)-3,5-pyridinecarboxylic acid ethyl methyl ester], for which, under setting [1], the “Lethality (NF)” value came out at 45 NF.

On to `CCCCCCCCCCCCCC(=O)O[C@@H]1[C@@H](C)[C@@]2(O)[C@@H](C=C(CO)C[C@]3(O)C(=O)C(C)=C[C@@H]23)[C@@H]2C(C)(C)[C@]12OC(C)=O` [Phorbol 12-myristate 13-acetate], for which the “Lethality (NF)” value under setting [2] worked out at 32 NF.

With `O=c1[nH]c2ccccc2n1C1CCN(CCCC(c2ccc(F)cc2)c2ccc(F)cc2)CC1` [Pimozide], the “Lethality (NF)” value under setting [3] amounted to 45 NF. Further, under “embryonic stage”, the “Type of edema Pericordial” value was 41/42, the “Type of edema Pronephric” value was 41/42 and the “Type of edema Ventral” value is reported as 41/42. Moreover, under setting [4], the Lethality was 45 embryonic stages according to Nieuwkoop and Faber (NF). Besides, the “Onset (NF)” value under setting [5] is recorded as 41/42.

As for `Br.C=CCN1CCc2cccc3c2[C@H]1Cc1ccc(O)c(O)c1-3` [R(-)-N-Allylnorapomorphine hydrobromide], the “Lethality (NF)” value (compounds causing pigmentation defects, 20 μM, scored to stage 47) is given as 40 NF. Besides, the “Onset (NF)” value (onset of pigmentation defects, 20 μM, 1% DMSO) is on record as 33/34.

In the case of `Nc1nc2ccc(OC(F)(F)F)cc2s1` [Riluzole, 2-Amino-6-(trifluoromethoxy)-benzothiazole], for the setting “embryonic stage”, the “Type of edema Pronephric” value is 45 embryonic stages according to Nieuwkoop and Faber (NF); the “Type of edema Periocular” value was 45 embryonic stages according to Nieuwkoop and Faber (NF); the “Type of edema Ventral” value is 45 embryonic stages according to Nieuwkoop and Faber (NF).

With `Cc1nc2sccn2c(=O)c1CCN1CCC(=C(c2ccc(F)cc2)c2ccc(F)cc2)CC1` [Ritanserin], where the note is “embryonic stage”, the “Type of edema Pronephric” value is 45 embryonic stages according to Nieuwkoop and Faber (NF); the “Type of edema Periocular” value was 41/42; the “Type of edema Ventral” value is given as 41/42. Besides, under setting [5], the “Onset (NF)” value is 41/42.
